Assay results as given in article PMC4979471 (Cell Death Discovery, 2015).
Like-named read-outs stand apart in the source and are kept apart here.

Tests used:
Assay in all cases: Kinase selectivity, P33-radiolabeled assay
Format in all cases: biochemical
Conditions in all cases: 10 μM ATP
HPK1/MAP4K1 = target: T1, HPK1/MAP4K1 (Homo sapiens, UniProt Q92918)
T1 construct: purchased Reaction Biology Corp
Summary of the method: (§1)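 Duplicate single-concentration testing used 10 μM compound. The ATP concentration was also 10 μM.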

EPHA3 = target: T2, EPHA3 (Homo sapiens, UniProt P29320)
T2 construct: purchased Reaction Biology Corp
T2 sequence (P29320 21-983): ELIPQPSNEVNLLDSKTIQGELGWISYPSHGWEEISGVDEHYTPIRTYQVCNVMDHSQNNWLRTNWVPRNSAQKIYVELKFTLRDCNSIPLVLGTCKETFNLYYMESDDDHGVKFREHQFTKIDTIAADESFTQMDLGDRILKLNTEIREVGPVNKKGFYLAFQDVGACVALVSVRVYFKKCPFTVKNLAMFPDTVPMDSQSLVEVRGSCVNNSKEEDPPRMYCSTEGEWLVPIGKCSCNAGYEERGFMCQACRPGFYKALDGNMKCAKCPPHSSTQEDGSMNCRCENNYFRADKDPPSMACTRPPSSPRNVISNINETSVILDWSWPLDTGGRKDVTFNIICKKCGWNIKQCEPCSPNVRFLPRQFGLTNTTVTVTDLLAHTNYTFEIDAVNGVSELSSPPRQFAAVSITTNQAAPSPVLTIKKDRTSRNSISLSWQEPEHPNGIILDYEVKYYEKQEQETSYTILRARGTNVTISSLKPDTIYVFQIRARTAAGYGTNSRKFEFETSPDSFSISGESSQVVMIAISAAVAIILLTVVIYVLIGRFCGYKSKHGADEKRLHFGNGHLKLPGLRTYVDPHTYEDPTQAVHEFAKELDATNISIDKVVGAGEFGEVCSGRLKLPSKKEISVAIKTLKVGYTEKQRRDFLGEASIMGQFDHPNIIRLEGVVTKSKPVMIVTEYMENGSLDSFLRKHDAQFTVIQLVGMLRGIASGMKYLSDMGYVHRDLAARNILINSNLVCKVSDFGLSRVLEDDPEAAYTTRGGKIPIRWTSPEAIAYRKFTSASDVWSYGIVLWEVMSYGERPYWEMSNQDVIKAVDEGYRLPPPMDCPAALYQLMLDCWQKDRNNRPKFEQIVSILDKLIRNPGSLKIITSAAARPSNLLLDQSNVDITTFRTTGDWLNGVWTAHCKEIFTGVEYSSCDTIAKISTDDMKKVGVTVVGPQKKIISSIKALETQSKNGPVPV
Summary of the method: as §1

STK33 = target: T3, STK33 (Homo sapiens, UniProt Q9BYT3)
T3 construct: purchased Reaction Biology Corp
T3 sequence (Q9BYT3 whole entry): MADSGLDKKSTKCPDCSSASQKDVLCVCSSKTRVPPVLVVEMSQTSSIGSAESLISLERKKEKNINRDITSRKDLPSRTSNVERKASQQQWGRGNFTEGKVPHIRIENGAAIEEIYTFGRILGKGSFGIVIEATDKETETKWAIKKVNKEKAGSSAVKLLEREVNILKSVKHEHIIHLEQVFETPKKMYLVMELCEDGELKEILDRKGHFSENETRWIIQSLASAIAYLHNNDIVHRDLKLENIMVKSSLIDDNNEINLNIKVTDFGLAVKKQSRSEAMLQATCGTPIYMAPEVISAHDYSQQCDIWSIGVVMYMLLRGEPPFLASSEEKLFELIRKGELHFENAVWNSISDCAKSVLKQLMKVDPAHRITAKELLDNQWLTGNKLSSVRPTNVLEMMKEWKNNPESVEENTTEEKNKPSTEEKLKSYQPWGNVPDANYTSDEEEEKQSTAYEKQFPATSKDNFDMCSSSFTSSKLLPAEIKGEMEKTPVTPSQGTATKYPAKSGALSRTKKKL
Summary of the method: as §1

PKCiota = target: T4, PKCiota (Homo sapiens, UniProt P41743)
T4 construct: purchased Reaction Biology Corp
T4 sequence (P41743 1-596): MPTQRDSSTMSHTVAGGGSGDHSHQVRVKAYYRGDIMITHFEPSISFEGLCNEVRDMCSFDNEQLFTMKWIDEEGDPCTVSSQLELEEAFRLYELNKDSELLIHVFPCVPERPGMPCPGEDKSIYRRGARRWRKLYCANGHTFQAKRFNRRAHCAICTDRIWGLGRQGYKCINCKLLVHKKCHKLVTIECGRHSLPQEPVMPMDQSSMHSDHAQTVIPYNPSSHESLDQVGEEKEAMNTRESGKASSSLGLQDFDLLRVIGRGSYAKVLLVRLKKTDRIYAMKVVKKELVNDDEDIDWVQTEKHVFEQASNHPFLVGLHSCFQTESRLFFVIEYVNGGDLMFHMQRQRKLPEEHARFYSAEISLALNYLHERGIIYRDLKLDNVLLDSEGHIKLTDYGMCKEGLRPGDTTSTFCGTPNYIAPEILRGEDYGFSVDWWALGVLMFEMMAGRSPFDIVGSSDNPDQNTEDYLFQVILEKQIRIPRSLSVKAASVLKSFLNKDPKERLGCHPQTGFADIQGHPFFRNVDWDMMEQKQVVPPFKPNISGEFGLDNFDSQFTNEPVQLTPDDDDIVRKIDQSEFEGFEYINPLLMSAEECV
Summary of the method: as §1

DRAK1/STK17A = target: T5, DRAK1/STK17A (Homo sapiens, UniProt Q9UEE5)
T5 construct: purchased Reaction Biology Corp
T5 sequence (Q9UEE5 1-414): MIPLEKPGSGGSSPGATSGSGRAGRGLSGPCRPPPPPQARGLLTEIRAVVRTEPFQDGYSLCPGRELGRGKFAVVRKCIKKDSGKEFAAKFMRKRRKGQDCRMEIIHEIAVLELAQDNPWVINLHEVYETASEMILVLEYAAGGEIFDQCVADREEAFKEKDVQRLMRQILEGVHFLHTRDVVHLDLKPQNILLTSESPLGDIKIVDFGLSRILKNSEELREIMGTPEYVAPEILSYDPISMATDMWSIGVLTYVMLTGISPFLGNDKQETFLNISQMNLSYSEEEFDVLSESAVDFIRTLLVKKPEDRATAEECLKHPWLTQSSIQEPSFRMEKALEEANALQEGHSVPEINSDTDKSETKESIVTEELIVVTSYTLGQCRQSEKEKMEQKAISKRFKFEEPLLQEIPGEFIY
Summary of the method: as §1

CK1g1 = target: T6, CK1g1 (Homo sapiens, UniProt Q9HCP0)
T6 construct: purchased Reaction Biology Corp
T6 sequence (Q9HCP0 whole entry): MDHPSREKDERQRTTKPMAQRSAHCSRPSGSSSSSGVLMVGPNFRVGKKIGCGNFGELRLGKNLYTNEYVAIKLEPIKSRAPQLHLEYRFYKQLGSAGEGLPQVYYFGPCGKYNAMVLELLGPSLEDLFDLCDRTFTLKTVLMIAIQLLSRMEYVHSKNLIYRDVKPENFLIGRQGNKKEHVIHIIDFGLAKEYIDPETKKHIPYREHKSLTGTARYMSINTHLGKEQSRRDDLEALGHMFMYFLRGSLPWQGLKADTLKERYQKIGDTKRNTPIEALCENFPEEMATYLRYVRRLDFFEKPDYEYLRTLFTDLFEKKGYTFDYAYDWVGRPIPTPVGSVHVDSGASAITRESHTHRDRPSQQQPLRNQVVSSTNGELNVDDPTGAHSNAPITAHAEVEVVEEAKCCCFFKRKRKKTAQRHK
Summary of the method: as §1

GRK6 = target: T7, GRK6 (Homo sapiens, UniProt P43250)
T7 construct: purchased Reaction Biology Corp
T7 sequence (P43250 whole entry): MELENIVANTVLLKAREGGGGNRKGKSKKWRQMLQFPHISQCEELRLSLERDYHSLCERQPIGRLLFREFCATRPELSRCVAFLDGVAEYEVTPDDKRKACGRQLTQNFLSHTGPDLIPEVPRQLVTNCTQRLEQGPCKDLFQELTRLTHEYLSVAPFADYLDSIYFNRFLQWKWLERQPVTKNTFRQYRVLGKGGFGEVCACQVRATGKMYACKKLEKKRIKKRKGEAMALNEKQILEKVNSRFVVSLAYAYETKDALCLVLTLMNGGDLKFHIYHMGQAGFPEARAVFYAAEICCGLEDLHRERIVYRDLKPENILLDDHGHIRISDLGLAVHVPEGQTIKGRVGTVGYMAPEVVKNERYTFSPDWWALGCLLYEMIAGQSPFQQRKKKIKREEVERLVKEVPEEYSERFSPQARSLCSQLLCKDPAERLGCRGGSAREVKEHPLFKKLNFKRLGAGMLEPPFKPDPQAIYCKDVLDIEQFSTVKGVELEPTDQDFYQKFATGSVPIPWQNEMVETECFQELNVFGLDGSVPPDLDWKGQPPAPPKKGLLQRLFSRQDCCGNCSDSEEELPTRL
Summary of the method: as §1

[1] = read-out: % Enzyme Activity (relative to DMSO controls) AVG
[2] = read-out: % Enzyme Activity (relative to DMSO controls) Data 1
[3] = read-out: % Enzyme Activity (relative to DMSO controls) Data 2

T1 sequence (Q92918 whole entry): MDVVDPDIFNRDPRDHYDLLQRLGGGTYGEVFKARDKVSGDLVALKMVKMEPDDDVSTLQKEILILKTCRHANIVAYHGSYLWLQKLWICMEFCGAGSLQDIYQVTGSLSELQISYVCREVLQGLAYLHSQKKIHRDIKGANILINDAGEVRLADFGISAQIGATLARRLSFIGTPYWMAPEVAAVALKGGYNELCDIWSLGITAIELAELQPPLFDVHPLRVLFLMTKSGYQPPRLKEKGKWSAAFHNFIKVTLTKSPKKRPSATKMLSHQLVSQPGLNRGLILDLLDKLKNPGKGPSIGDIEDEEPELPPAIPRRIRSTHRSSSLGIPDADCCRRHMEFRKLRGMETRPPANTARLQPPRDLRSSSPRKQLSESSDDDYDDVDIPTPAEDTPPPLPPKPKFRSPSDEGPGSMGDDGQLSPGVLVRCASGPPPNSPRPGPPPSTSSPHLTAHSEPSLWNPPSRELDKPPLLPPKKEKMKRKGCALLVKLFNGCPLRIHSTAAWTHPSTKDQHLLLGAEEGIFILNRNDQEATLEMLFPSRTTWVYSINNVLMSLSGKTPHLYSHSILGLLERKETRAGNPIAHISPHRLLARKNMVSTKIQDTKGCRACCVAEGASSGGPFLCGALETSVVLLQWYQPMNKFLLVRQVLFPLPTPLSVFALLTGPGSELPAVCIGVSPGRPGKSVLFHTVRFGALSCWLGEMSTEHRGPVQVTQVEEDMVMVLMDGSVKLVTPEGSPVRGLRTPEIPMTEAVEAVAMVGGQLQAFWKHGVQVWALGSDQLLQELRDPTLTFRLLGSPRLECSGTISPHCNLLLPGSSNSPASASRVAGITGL

For `CC(C)(C)C(=O)N1N=CC[C@H]1c1ccccc1` [GSK′963], the remaining activity at 10 µM (HPK1/MAP4K1; [1]) was 100%, the remaining activity at 10 µM (HPK1/MAP4K1; [2]) was 100% and the remaining activity at 10 µM (HPK1/MAP4K1; [3]) was 101%. It also gave a remaining activity at 10 µM (EPHA3; [1]) of 91.8%, a remaining activity at 10 µM (EPHA3; [2]) of 94.4% and a remaining activity at 10 µM (EPHA3; [3]) of 89.2%. For the same molecule, the remaining activity at 10 µM (STK33; [1]) was 103%, the remaining activity at 10 µM (STK33; [2]) was 104% and the remaining activity at 10 µM (STK33; [3]) was 102%. It also gave a remaining activity at 10 µM (PKCiota; [1]) of 109%, a remaining activity at 10 µM (PKCiota; [2]) of 105% and a remaining activity at 10 µM (PKCiota; [3]) of 114%. For the same molecule, the remaining activity at 10 µM (DRAK1/STK17A; [1]) was 99.7%, the remaining activity at 10 µM (DRAK1/STK17A; [2]) was 98.1% and the remaining activity at 10 µM (DRAK1/STK17A; [3]) was 101%. It also gave a remaining activity at 10 µM (CK1g1; [1]) of 108%, a remaining activity at 10 µM (CK1g1; [2]) of 111% and a remaining activity at 10 µM (CK1g1; [3]) of 105%. For the same molecule, the remaining activity at 10 µM (GRK6; [1]) was 104%, the remaining activity at 10 µM (GRK6; [2]) was 104% and the remaining activity at 10 µM (GRK6; [3]) was 103%.
